The source of these data is patent US11713305B2, “Zinc sensors for in vivo imaging of beta-cell function by MRI” (The Board of Regents of the University of Texas System, priority 2017, dated 2023).

As usually defined, the Kd is the concentration at which binding is half-saturated.

Series [1] can be described thus: 17O NMR of Gd complexes (water exchange, SBM fitting). The series is classed as physicochemical. On the set-up: A/ℏ: unit not given here. The conditions noted are these: for hyperfine coupling constant (AO/ℏ): 17O NMR fit, underlined values fixed during fitting; for water exchange rate kex^310 / ΔH‡ / ER / τRO^298 / A/ℏ / EV / Δ^2 / τV^298: 17O NMR; for water exchange rate kex^310 / ΔH‡: 9.4 T; for water exchange rate kex^310: 310 K; for ΔH‡ / ER / τRO^298 / A/ℏ / EV / Δ^2 / τV^298: best-fit; for ΔH‡: [Gd^3+]=25 mM; for ER: activation energy of rotational correlation time; for τRO^298: rotational correlation time; for A/ℏ: scalar coupling constant; for EV / Δ^2 / τV^298: sometimes fixed; for water exchange rate kex: slowest exchange rates, in 1/s; for faster water exchange rates: compared with GdL1 and GdL4; for empirical constant describing the outer sphere contribution to the 17O chemical shift, Cos: fitted. As for the experimental part: Given that the rate of water exchange (kex) in these complexes is likely the limiting factor in determining the magnitude of r1 increase when the GdL-Zn complexes bind to HSA, further temperature dependent ^17O NMR studies were performed to evaluate the water exchange rates. A simultaneous analysis of ^17O reduced T1, T2, and chemical shift (Δωr) data were analyzed (Powell et al., 1996; Gonzalez et al., 1994; Martins et al., 2013; Martins et al., 2015) to estimate the q values, kex, and hyperfine coupling constants for GdL1-5.
^17O NMR experiments were performed at 9.4 T on a Bruker AVANCE III NMR spectrometer. The temperature was regulated by air flow controlled by a Bruker VT unit. The samples ([Gd^3+]=25 mM; [Dy^3+]=1 mM) were prepared in ^17O enriched water (10%) with the pH being maintained at 7.4 with 100 mM Tris buffer. The sample was loaded into a 18 μL spherical bulb (Wilmad-Lab Glass, Vineland, NJ) and placed inside a 5 mm NMR tube containing 400 μL of water to eliminate any susceptibility effects. Longitudinal relaxation rates (1/T1) were obtained by the inversion recovery method and transverse relaxation rates (1/T2) were obtained by the Carr-Purcell—Meiboom—Gill spin echo technique. The acidified water (pH=3.0) containing 10% enriched ^17O water was used as a reference for the measurements. For the DyL4 complexes (no HSA and with HSA+Zinc), acidified water solutions and 1 mM LaL4+3 mM HSA with zinc (1:1) were used as the corresponding references. The corresponding fittings were performed with the Scientist 3.0 software (Micromath®).
^17O NMR data have been analyzed within the framework of Solomon-Bloembergen-Morgan theory.
From the measured ^17O NMR relaxation rates and angular frequencies of the paramagnetic solutions, 1/T1, 1/T2 and ω, and of the acidified water reference, a1/T1A, 1/T2A and ωA, one can calculate the reduced relaxation rates and chemical shifts, 1/7′2, and Δωr, which may be written in Equations (A1)-(A3), where, 1/T1m, 1/T2m, is the relaxation rate of the bound water and Awn, is the chemical shift difference between bound and bulk water molecules, τm is the mean residence time or the inverse of the water exchange rate kex and Pm is the mole fraction of the bound water (Swift and Connick, 1962; Zimmerman and Brittin, 1957).
The outer sphere contributions to the ^17O relaxation rates 1/T1OS and 1/T2OS are being neglected according to previous studies (Micskei et al., 1993). Therefore, Equations (A1-A2) can be further simplified to Equations (A4) and (A5): […]
The exchange rate is supposed to obey the Eyring Equation. In Equation (A6) ΔS^‡ and ΔH^‡ are the entropy and enthalpy of activation for the water exchange process, and kex^298 is the exchange rate at 298.15 K.
In the transverse relaxation, the scalar contribution, 1/T2s, is the most relevant [Equation (A7)]. 1/τsl is the sum of the exchange rate constant and the electron spin relaxation rate [Equation (A8)].
The ^17O longitudinal relaxation rates in Gd^3+ solutions are the sum of the contributions of the dipole-dipole (dd) and quadrupolar (q) mechanisms as expressed by Equations (A11-A13) for non-extreme narrowing conditions, where γS is the electron and γ1 is the nuclear gyromagnetic ratio (γS=1.76×10^11 rad s^−1 T^−1, γ1=˜3.626×107 rad s^−1 T^−1), rGdO is the effective distance between the electron charge and the ^17O nucleus, I is the nuclear spin (5/2 for ^17O), x is the quadrupolar coupling constant and η is an asymmetry parameter:
In Equation (A3) the chemical shift of the bound water molecule, Δωm, depends on the hyperfine interaction between the Gd^3+ electron spin and the ^17O nucleus and is directly proportional to the scalar coupling constant, A/h, as expressed in Equation (A12) (Brittain and Desreux, 1984).
The isotopic Landé g factor is equal to 2.0 for the Gd^3+, B represents the magnetic field, and kB is the Boltzmann constant. […]

For series [2], the target named is T1, HSA (Homo sapiens, UniProt P02768).
T1 construct: purchased Sigma-Aldrich
T1 sequence (P02768 25-609): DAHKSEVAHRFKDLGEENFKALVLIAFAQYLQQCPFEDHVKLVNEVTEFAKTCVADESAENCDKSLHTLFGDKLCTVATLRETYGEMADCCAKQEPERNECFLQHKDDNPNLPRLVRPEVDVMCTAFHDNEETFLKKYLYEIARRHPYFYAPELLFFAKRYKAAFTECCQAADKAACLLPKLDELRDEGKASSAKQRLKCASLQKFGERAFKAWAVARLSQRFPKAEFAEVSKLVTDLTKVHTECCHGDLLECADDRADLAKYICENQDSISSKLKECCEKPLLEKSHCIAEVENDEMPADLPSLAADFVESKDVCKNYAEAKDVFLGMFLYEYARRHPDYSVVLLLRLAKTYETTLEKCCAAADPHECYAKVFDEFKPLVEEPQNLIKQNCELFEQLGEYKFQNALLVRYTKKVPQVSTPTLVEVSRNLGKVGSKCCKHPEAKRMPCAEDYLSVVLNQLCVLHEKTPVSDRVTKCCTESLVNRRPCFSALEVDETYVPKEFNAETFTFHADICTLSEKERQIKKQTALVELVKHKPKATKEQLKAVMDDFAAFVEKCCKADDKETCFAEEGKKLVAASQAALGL
Put plainly: HSA dissociation constant by fluorescence competition with dansylglycine. It counts as binding. The conditions noted are these: one site competition fitting with dansylglycine; in presence of Zn^2+; read-out: KD(GdLZnHSA). As for the experimental part: The procedures reported by Esqueda et al were followed (2009). A solution containing 5 μM of dansylglycine (or warfarin), 5 μM HSA, 400 μM GdL plus one equivalent of Zn^2+ was prepared in TRIS buffer. Aliquots of this solution were 2-fold diluted serially ten times by addition of a solution which contained the same concentrations of dansylglycine (warfarin) and HSA but no agent. The fluorescence of 100 μL aliquots was measured in triplicate in 96 well plates. In a similar manner solutions containing agent, HSA but no dansylglycine (warfarin), were also included. Four 100 μL aliquots of the solution containing no agent (maximum fluorescent intensity) were also measured in the same 96 well plate, along with four 100 μL aliquots of HSA in buffer.
The excitation and emission wavelengths used for the dansylglycine: 360 and 465 nm, respectively. The excitation and emission wavelengths used for warfarin: 320 and 380 nm, respectively.

A short description of series [3]: GdL-Zn dissociation constants by fluorescence (ZnAF-2F competition). The conditions noted are these: K2 in FIG. 4; Tris buffer; read-out: KD(GdLZn). The series is classed as binding. As for the experimental part: The procedures reported by Esqueda et al were followed (Esqueda et al., 2009). Solutions containing 1 μM of ZnAF-2F, 0.05 μM ZnCl2 and 100 μM GdL sensors were prepared in TRIS buffer. Aliquots of this solution were 3-fold diluted serially 10 times by addition of a buffered solution containing the same concentration of ZnAF-2F and ZnCl2 but no agent. The fluorescence was measured in triplicate in 96 well plates (100 μL). In a similar manner solutions containing agent, ZnCl2 but no fluorescent probe, were prepared and fluorescence measured by triplicate to account for any signal coming from the agent interacting with Zn^2+. The excitation and emission wavelengths used were 492 and 514 nm, respectively. The Zn dissociation constant was determined by fitting the data to the following equations:
[formula] F is the measured corrected fluorescence. Fmin is the minimal fluorescence observed in the competition binding experiment. Fmax corresponds to the fluorescence in absence of competitor. [GdL]o is the concentration of the zinc sensor chosen. IC50 corresponds to the concentration of competitor that decreases by 50% the % F. K′D is the dissociation constant of the competitor. [FP]o is the total concentration of the fluorescent probe. KD is the dissociation constant of the fluorescent probe and Zn^2+.

As for `O=C(O)CN1CCN(CC(=O)O)CCN(CC(=O)NCCN(Cc2ccccn2)Cc2ccccn2)CCN(CC(=O)O)CC1` [GdL1], in series [1], the “hyperfine coupling constant (AO/ℏ)” value is recorded as −4.0 ± 0.2 ×10^6 rad/s, the “water exchange rate kex^310” value was 2.9 ± 0.1 ×10^6 s^−1, the “ΔH‡” value amounted to 10.6 ± 0.239 kcal/mol and the ER stood at 4.95 ± 0.048 kcal/mol. In series [1], the “τRO^298” value turned out to be 280 ± 11 ps, the A/ℏ is reported as −4.0 ± 0.1, the EV worked out at 0.263 ± 0.024 kcal/mol and the “Δ^2” value is 0.10 ± 0.01 10^20 s^−2. Besides, in series [1], the “τV^298” value came to 4.6 ± 0.1 ps and the “water exchange rate kex” value is ~3 ×106 5-1. In addition, the Kd in series [2] was determined as 36 ± 1 µM. Besides, the Kd in series [3] amounted to 0.118 µM.

As for `O=C(O)CN1CCN(CCC(=O)NCCN(Cc2ccccn2)Cc2ccccn2)CCN(CC(=O)O)CCN(CC(=O)O)CC1` [GdL2], in series [1], the “hyperfine coupling constant (AO/ℏ)” value is −3.7 ± 0.2 ×10^6 rad/s, the “water exchange rate kex^310” value is given as 100 ± 1 ×10^6 s^−1, the “ΔH‡” value came out at 10.9 ± 0.263 kcal/mol and the ER turned out to be 4.09 ± 0.048 kcal/mol. For the same molecule, in series [1], the “τRO^298” value worked out at 320 ± 11 ps, the A/ℏ is −3.7 ± 0.2, the EV was 0.263 ± 0.0024 kcal/mol and the “Δ^2” value is given as 0.13 ± 0.01 10^20 s^−2. In series [1], the “τV^298” value is recorded as 7.1 ± 0.1 ps; the “faster water exchange rates” value is recorded as roughly 30 fold; the “empirical constant describing the outer sphere contribution to the 17O chemical shift, Cos” value was 0.1. The Kd in series [2] was found to be 37 ± 1 µM. Besides, in series [3], the dissociation constant Kd was 0.19 ± 0.005 µM.

Consider `O=C(O)CCN1CCN(CC(=O)O)CCN(CC(=O)NCCN(Cc2ccccn2)Cc2ccccn2)CCN(CC(=O)O)CC1` [GdL3], for which, in series [1], the “hyperfine coupling constant (AO/ℏ)” value is −3.7 ×10^6 rad/s, the “water exchange rate kex^310” value is 90 ± 0.2 ×10^6 s^−1, the “ΔH‡” value is 11.2 ± 0.239 kcal/mol and the ER was 4.11 ± 0.024 kcal/mol. Further, in series [1], the “τRO^298” value was found to be 320 ps, the A/ℏ is recorded as −3.7, the EV turned out to be 0.263 kcal/mol and the “Δ^2” value is reported as 0.13 10^20 s^−2. Further, in series [1], the “τV^298” value turned out to be 7.1 ps; the “faster water exchange rates” value was roughly 30 fold; the “empirical constant describing the outer sphere contribution to the 17O chemical shift, Cos” value was 0.1. Also, the dissociation constant (Kd) in series [2] came out at 37 ± 1 µM. Moreover, the Kd in series [3] is 0.185 ± 0.005 µM.

With `O=C(O)CN1CCN(CC(=O)O)CCN(CC(=O)NCCN(CCc2ccccn2)Cc2ccccn2)CCN(CC(=O)O)CC1` [GdL4], in series [1], the “hyperfine coupling constant (AO/ℏ)” value is −4.0 ± 0.2 ×10^6 rad/s, the “water exchange rate kex^310” value is given as 3.0 ± 0.1 ×10^6 s^−1, the “ΔH‡” value turned out to be 3.61 ± 0.359 kcal/mol and the ER worked out at 4.16 ± 0.048 kcal/mol. Also, in series [1], the “τRO^298” value is recorded as 350 ± 12 ps, the A/ℏ is listed as −4.0 ± 0.4, the EV is 0.239 kcal/mol and the “Δ^2” value was 0.16 10^20 s^−2. For the same molecule, in series [1], the “τV^298” value was 11 ps and the “water exchange rate kex” value was ~3 ×106 5-1. The Kd in series [2] was determined as 42 ± 1 µM. Moreover, the Kd in series [3] turned out to be 2.35 µM.

`O=C(O)CN1CCN(CCC(=O)NCCN(CCc2ccccn2)Cc2ccccn2)CCN(CC(=O)O)CCN(CC(=O)O)CC1` [GdL5]: in series [1], the “hyperfine coupling constant (AO/ℏ)” value was −3.9 ± 0.3 ×10^6 rad/s, the “water exchange rate kex^310” value is 100 ± 1 ×10^6 s^−1, the “ΔH‡” value was 10.9 ± 0.311 kcal/mol and the ER was 3.59 kcal/mol. For the same molecule, in series [1], the “τRO^298” value is listed as 305 ± 10 ps, the A/ℏ is reported as −3.9 ± 0.2, the EV stood at 0.239 kcal/mol and the “Δ^2” value was 0.67 ± 0.2 10^20 s^−2. For the same molecule, in series [1], the “τV^298” value came out at 14 ± 0.2 ps and the “faster water exchange rates” value is roughly 30 fold. Further, the Kd in series [2] was 43 ± 1 µM. The Kd in series [3] was determined as 2.57 ± 0.054 µM.
